Test results published in PubChem BioAssay AID1259407 (Chemical Carcinogenesis Research Information System (CCRIS), 2018).
Activity calls are given as the source filed them. The rule behind the calls is not given here.

Tested on: CCRIS mutagenicity, Ames/micronucleus/aberration tests
Assay: CCRIS mutagenicity studies
[1] = Test System: AMES SALMONELLA TYPHIMURIUM, Strain/Indicator: TA98, Metabolic Activation: HAMSTER, LIVER, S-9, AROCLOR 1254 (10%), Method: STANDARD PLATE
[2] = Test System: AMES SALMONELLA TYPHIMURIUM, Strain/Indicator: TA98, Metabolic Activation: NONE, Method: STANDARD PLATE
[3] = Test System: AMES SALMONELLA TYPHIMURIUM, Strain/Indicator: TA98, Metabolic Activation: RAT, LIVER, S-9, AROCLOR 1254 (10%), Method: STANDARD PLATE
[4] = Test System: AMES SALMONELLA TYPHIMURIUM, Strain/Indicator: TA100, Metabolic Activation: HAMSTER, LIVER, S-9, AROCLOR 1254 (10%), Method: STANDARD PLATE
[5] = Test System: AMES SALMONELLA TYPHIMURIUM, Strain/Indicator: TA100, Metabolic Activation: NONE, Method: STANDARD PLATE
[6] = Test System: AMES SALMONELLA TYPHIMURIUM, Strain/Indicator: TA100, Metabolic Activation: RAT, LIVER, S-9, AROCLOR 1254 (10%), Method: STANDARD PLATE
[7] = Test System: AMES SALMONELLA TYPHIMURIUM, Strain/Indicator: TA1535, Metabolic Activation: HAMSTER, LIVER, S-9, AROCLOR 1254 (10%), Method: STANDARD PLATE
[8] = Test System: AMES SALMONELLA TYPHIMURIUM, Strain/Indicator: TA1535, Metabolic Activation: NONE, Method: STANDARD PLATE
[9] = Test System: AMES SALMONELLA TYPHIMURIUM, Strain/Indicator: TA1535, Metabolic Activation: RAT, LIVER, S-9, AROCLOR 1254 (10%), Method: STANDARD PLATE
[10] = Test System: AMES SALMONELLA TYPHIMURIUM, Strain/Indicator: TA1537, Metabolic Activation: HAMSTER, LIVER, S-9, AROCLOR 1254 (10%), Method: STANDARD PLATE
[11] = Test System: AMES SALMONELLA TYPHIMURIUM, Strain/Indicator: TA1537, Metabolic Activation: NONE, Method: STANDARD PLATE
[12] = Test System: AMES SALMONELLA TYPHIMURIUM, Strain/Indicator: TA1537, Metabolic Activation: RAT, LIVER, S-9, AROCLOR 1254 (10%), Method: STANDARD PLATE
[13] = Test System: AMES SALMONELLA TYPHIMURIUM, Strain/Indicator: TA1538, Metabolic Activation: HAMSTER, LIVER, S-9, AROCLOR 1254 (10%), Method: STANDARD PLATE
[14] = Test System: AMES SALMONELLA TYPHIMURIUM, Strain/Indicator: TA1538, Metabolic Activation: NONE, Method: STANDARD PLATE
[15] = Test System: AMES SALMONELLA TYPHIMURIUM, Strain/Indicator: TA1538, Metabolic Activation: RAT, LIVER, S-9, AROCLOR 1254 (10%), Method: STANDARD PLATE
[16] = Test System: MOUSE LYMPHOMA, Strain/Indicator: L5178Y (TK+/TK-), Metabolic Activation: RAT, LIVER, S-9, AROCLOR 1254, Method: SUSPENSION/PLATE
[17] = Test System: AMES SALMONELLA TYPHIMURIUM, Strain/Indicator: TA98, Metabolic Activation: RAT, LIVER, S-9, AROCLOR 1254, Method: STANDARD PLATE

Measured: mutagenic call

CC(O)CN1CC(C)OC1=O (configuration not stated)
active: Test System: MOUSE LYMPHOMA, Strain/Indicator: L5178Y (TK+/TK-), Metabolic Activation: NONE, Method: SUSPENSION/PLATE active; positive. reevaluation of results: positive | [16] active; positive. reevaluation of results: equivocal
inactive: [1] inactive; negative | [2] inactive; negative | [3] inactive; negative | [4] inactive; negative | [5] inactive; negative | [6] inactive; negative | [7] inactive; negative | [8] inactive; negative | [9] inactive; negative | [10] inactive; negative | [11] inactive; negative | [12] inactive; negative | [13] inactive; negative | [14] inactive; negative | [15] inactive; negative

CCOP(=O)(OCC)O/C(=C\Cl)c1ccc(Cl)cc1Cl
inactive: [2] inactive; negative | [17] inactive; negative | Test System: AMES SALMONELLA TYPHIMURIUM, Strain/Indicator: TA100, Metabolic Activation: RAT, LIVER, S-9, AROCLOR 1254, Method: STANDARD PLATE inactive; negative | Test System: AMES SALMONELLA TYPHIMURIUM, Strain/Indicator: TA100, Metabolic Activation: S-9 MIX, Method: STANDARD PLATE inactive; negative | [8] inactive; negative | Test System: AMES SALMONELLA TYPHIMURIUM, Strain/Indicator: TA1535, Metabolic Activation: RAT, LIVER, S-9, AROCLOR 1254, Method: STANDARD PLATE inactive; negative | [11] inactive; negative | Test System: AMES SALMONELLA TYPHIMURIUM, Strain/Indicator: TA1537, Metabolic Activation: RAT, LIVER, S-9, AROCLOR 1254, Method: STANDARD PLATE inactive; negative | [14] inactive; negative | Test System: AMES SALMONELLA TYPHIMURIUM, Strain/Indicator: TA1538, Metabolic Activation: RAT, LIVER, S-9, AROCLOR 1254, Method: STANDARD PLATE inactive; negative

O=C(Nc1ccccc1)c1cc2ccccc2c(N=Nc2cc(Cl)ccc2Cl)c1O
inactive: Test System: AMES SALMONELLA TYPHIMURIUM, Strain/Indicator: TA98, Metabolic Activation: HAMSTER, LIVER, S-9, AROCLOR 1254 (10%), Method: PREINCUBATION inactive; negative | Test System: AMES SALMONELLA TYPHIMURIUM, Strain/Indicator: TA98, Metabolic Activation: NONE, Method: PREINCUBATION inactive; negative | Test System: AMES SALMONELLA TYPHIMURIUM, Strain/Indicator: TA98, Metabolic Activation: RAT, LIVER, S-9, AROCLOR 1254 (30%), Method: PREINCUBATION inactive; negative | Test System: AMES SALMONELLA TYPHIMURIUM, Strain/Indicator: TA100, Metabolic Activation: HAMSTER, LIVER, S-9, AROCLOR 1254 (30%), Method: PREINCUBATION inactive; negative | Test System: AMES SALMONELLA TYPHIMURIUM, Strain/Indicator: TA100, Metabolic Activation: NONE, Method: PREINCUBATION inactive; negative | Test System: AMES SALMONELLA TYPHIMURIUM, Strain/Indicator: TA100, Metabolic Activation: RAT, LIVER, S-9, AROCLOR 1254 (30%), Method: PREINCUBATION inactive; negative
active: Test System: AMES SALMONELLA TYPHIMURIUM, Strain/Indicator: TA98, Metabolic Activation: HAMSTER, LIVER, S-9, AROCLOR 1254 (30%), Method: PREINCUBATION active; positive | Test System: AMES SALMONELLA TYPHIMURIUM, Strain/Indicator: TA1538, Metabolic Activation: HAMSTER, LIVER, S-9, AROCLOR 1254 (30%), Method: PREINCUBATION active; positive

O=c1[nH]c(=O)n([C@@H]2O[C@H](CO)[C@@H](O)[C@@H]2O)cc1/C=C/Br
inactive: Test System: CHINESE HAMSTER V-79, Strain/Indicator: V-79/8-AZAGUANINE, Metabolic Activation: NONE inactive; negative | Test System: UDS RODENT HEPATOCYTES, Strain/Indicator: THY INCORP, Metabolic Activation: NONE inactive; negative

CC(=O)Nc1cc2c(cc1Cl)-c1ccccc1C2
active: [17] active; positive

O=[N+]([O-])c1c(O)ccc2c1[nH]c1ccccc12
inactive: [2] inactive; negative | [17] inactive; negative

N#Cc1cc(Br)c(O)c(Br)c1
inactive: [1] inactive; negative | [2] inactive; negative | [3] inactive; negative | [4] inactive; negative | [5] inactive; negative | [6] inactive; negative | [7] inactive; negative | [8] inactive; negative | [9] inactive; negative | [10] inactive; negative | [11] inactive; negative | [12] inactive; negative | [13] inactive; negative | [14] inactive; negative | [15] inactive; negative | Test System: Mouse lymphoma, Strain/Indicator: L5178Y (tk+/tk-), Metabolic Activation: None, Method: Suspension/plate inactive; negative
active: [16] active; positive. reevaluation of results: equivocal
